In publication PMC7582705, “Structure-Based Discovery of Novel Chemical Classes of Autotaxin Inhibitors” (International Journal of Molecular Sciences, 2020):

Columns and labels:
ATX [1] = target: T1, ATX (Homo sapiens, UniProt Q13822); assay: IC50 Eleanna (Table S2, method not described); format: biochemical; conditions: Table S2; read-out: IC50 Eleanna
ATX [2] = target: T1, ATX; assay: Amplex Red Lyso-phospholipase D assay, human ATX; format: biochemical; parameters: purchased Sino Biological; conditions: for IC50: Table S2, Sino hATX 2nM; for inhibition at 30 µM: read-out: %inhibition at 30uM
Experimental: All compounds proposed were assessed for their ATX inhibitory activity in vitro using the Amplex Red assay. The Amplex Red Lyso-phospholipase D assay is a fluorometry-based assay providing a sensitive method for measuring Lyso-phospholipase D (ATX) activity in vitro. In this enzyme-coupled assay, ATX activity is monitored indirectly using 10-acetyl-3,7-dihydrophenoxazine (Amplex Red reagent), a sensitive fluorogenic probe for H2O2. ATX initially cleaves the Lysophosphatidylcholine (LPC) substrate to yield choline and Lysophosphatidic acid (LPA), while choline gets subsequently oxidized by choline oxidase to betaine and H2O2. Lastly, H2O2, in the presence of horseradish peroxidase (HRP), reacts with Amplex Red reagent in a 1:1 stoichiometry to generate the highly fluorescent product resorufin.
The inhibition assay was performed as previously described with some modifications in order to accommodate the newly-discovered lag phase in ATX kinetics. To this end, and in order to provide adequate time to the hydrolysis of LPC by ATX, we added a 30min incubation period between ATX, inhibitors and LPC. Briefly, 2 μL of different concentrations of inhibitors diluted in DMSO (Sigma-Aldrich, St. Louis, MO, USA) were incubated with 50 µL of ATX 8 nM (human or mouse ATX from Sino Biological), and 48 µL reaction buffer (50 mM Tris-Cl pH 8.0 from Thermo Fisher Scientific, Waltham, MA, USA and 5 mM CaCl2 from Honeywell-Fluka, Charlotte, NC, USA) in a black 96-well microplate for 15 min at 37 °C. Thence, another 50 µL of reaction buffer with 200 μM LPC substrate 16:0 (Avanti Polar Lipids Inc, Alabaster, AL, USA) ([…]) was added to the reaction mixture and incubated for 30 min at 37 °C in order for ATX to convert LPC to LPA and choline. Finally, 50 µL of working solution containing 200 μM Amplex Red (Invitrogen, Carlsbad, CA, USA), 4 U/mL HRP (Sigma-Aldrich, St. Louis, MO, USA), 0.4 U/mL choline oxidase (Sigma-Aldrich, St. Louis, MO, USA) in 50 mM Tris-HCl pH 8.0 and 5 mM CaCl2 was added to measure the produced choline. The reaction was monitored at 37 °C in a fluorescence plate reader using excitation at 530 nm and reading at 590 nm, every 5 min for 30 min. The velocity of the reaction and the remaining activity of ATX were calculated at the linear phase of the reaction and dose-response inhibition graphs were plotted with GraphPad Software (GraphPad Software, San Diego, CA, USA). […] In order to evaluate a possible effect of the compounds on the second (choline oxidase) and third (HRP) enzymes of the Amplex Red assay, we also performed the assay in the absence of ATX but in the presence of the compounds. Instead of ATX, we added choline chloride at a final concentration of 2 µM so as the second and third steps of the assay could proceed normally.

[3] = read-out: in vitro IC50 (Sino hATX 2nM)

Row | Structure (SMILES) | IC50 (ATX [1]) | IC50 (ATX [2]; in vitro IC50 (Sino hATX 2nM)) | inhibition at 30 µM (ATX [2]; Table S2, at 30uM) | IC50 (ATX [2]; [3]) | %inhibition at 30uM (ATX [2]; Table S2, at 30uM)
1 | COCCCN1C(=O)c2[nH]nc(-c3ccccc3)c2C1c1ccc(C(C)C)cc1 (stereo not drawn) [KM-2, 5-(3-methoxypropyl)-3-phenyl-4-(4-propan-2-ylphenyl)-1,4-dihydropyrrolo[3,4-c]pyrazol-6-one] | > 5 µM | > 30 µM | – | – | –
2 | CCc1ccccc1NC(=O)C1c2ccccc2C(=O)N(CCOC)C1c1cccs1 (stereo not drawn) [KM-4, N-(2-ethylphenyl)-2-(2-methoxyethyl)-1-oxo-3-thiophen-2-yl-3,4-dihydroisoquinoline-4-carboxamide] | > 5 µM | > 30 µM | – | – | –
3 | CCOC(=O)c1c(CN2CCCCC2)n(-c2ccccc2)c2cc(Br)c(OC)cc12 [KM-6, ethyl 6-bromo-5-methoxy-1-phenyl-2-(piperidin-1-ylmethyl)indole-3-carboxylate] | 4.5 µM | > 30 µM | 20.6% | – | –
4 | COc1ccccc1C(=O)NCc1nc2ccccc2n1Cc1cc(C)ccc1C [KM-9, N-[[1-[(2,5-dimethylphenyl)methyl]benzimidazol-2-yl]methyl]-2-methoxybenzamide,] | 5 µM | > 30 µM | 17.1% | – | –
5 | Cc1ccc(C)c(NC(=O)CSc2cn(CC(=O)N3CCCC3)c3ccccc23)c1 [KM-21, N-(2,5-dimethylphenyl)-2-[1-(2-oxo-2-pyrrolidin-1-ylethyl)indol-3-yl]sulfanylacetamide] | > 5 µM | > 30 µM | – | – | –
6 | COc1cc([C@H]2c3cccn3CCN2C(=S)Nc2ccccc2C)cc(OC)c1OC [KM-27, N-(o-tolyl)-1-(3,4,5-trimethoxyphenyl)-3,4-dihydro, (1S)-N-(2-methylphenyl)-1-(3,4,5-trimethoxyphenyl)-3,4-dihydro-1H-pyrrolo[1,2-a]pyrazine-2-carbothioamide] | 1 µM | – | – | > 30 µM | –
7 | COc1ccc(Cn2c(C(=O)O)c(CNC3CCCCC3)c3ccc(C)cc32)cc1 [KM-29, 3-[(cyclohexylamino)methyl]-1-[(4-methoxyphenyl)methyl]-6-methylindole-2-carboxylic acid] | 1.2 µM | > 30 µM | 3.21% | – | –
8 | CCOC(=O)Cc1c(CN2CCN(C)CC2)c2ccccc2n1Cc1ccccc1 [KM-30, ethyl 2-[1-benzyl-3-[(4-methylpiperazin-1-yl)methyl]indol-2-yl]acetate] | 5 µM | > 30 µM | 0% | – | –
9 | COc1ccc(NC(=S)N2CCn3cccc3C2c2ccc(OC)c(OC)c2)cc1 (stereo not drawn) [KM-31, 1-(3,4-dimethoxyphenyl)-N-(4-methoxyphenyl)-3,4-dihydro-1H-pyrrolo[1,2-a]pyrazine-2-carbothioamide] | 4.5 µM | > 30 µM | – | – | –
10 | CCc1ccc([C@H](NC(=O)CCN2C(=O)[C@@H](C)Oc3ccccc32)c2cccs2)cc1 [KM-36, N-[(S)-(4-ethylphenyl)-thiophen-2-ylmethyl]-3-[(2R)-2-methyl-3-oxo-1,4-benzoxazin-4-yl]propanamide] | 5 µM | > 30 µM | 9.71% | – | –
11 | CCOC(=O)c1c(-c2ccccc2)oc2ccc(O)c(CN3CCC(C)CC3)c12 [KM-39, 3-ethoxycarbonyl-4-[(4-methylpiperidin-1-ium-1-yl)methyl]-2-phenyl-1-benzofuran-5-olate] | 5 µM | > 30 µM | – | – | –
12 | CCOC(=O)c1c(-c2ccccc2)oc2ccc(O)c(CN3CCC(C)CC3)c12.Cl [KM-40, ethyl 5-hydroxy-4-[(4-methylpiperidin-1-yl)methyl]-2-phenyl-1-benzofuran-3-carboxylate;hydrochloride] | – | – | – | > 30 µM | 41.295%
13 | CC1Cc2nc(SCC(=O)NCc3ccc(F)cc3)n(Cc3ccccc3)c(=O)c2S1 (stereo not drawn) [KM-45, 2-[(3-benzyl-6-methyl-4-oxo-6,7-dihydrothieno[3,2-d]pyrimidin-2-yl)sulfanyl]-N-[(4-fluorophenyl)methyl]acetamide] | 1.3 µM | > 30 µM | 35.3% | – | –
14 | COc1ccc2c(CNC3CCC(C)CC3)c(C(=O)O)n(Cc3ccccc3)c2c1 (stereo not drawn) [KM-47, 1-benzyl-6-methoxy-3-[[(4-methylcyclohexyl)amino]methyl]indole-2-carboxylic acid] | > 5 µM | > 30 µM | – | – | –
15 | CCOC(=O)c1c(-c2ccccc2)oc2ccc(O)c(CN3CCCCC3C)c12 (stereo not drawn) [KM-48, 2,3-dihydroxybutanedioic acid;ethyl 5-hydroxy-4-[(2-methylpiperidin-1-yl)methyl]-2-phenyl-1-benzofuran-3-carboxylate] | > 5 µM | – | – | > 30 µM | –
16 | CCOC(=O)c1c(C)c(-c2ccccc2)n(CC(=O)N2CCc3ccccc3C2)c1C [KM-49, ethyl 1-[2-(3,4-dihydro-1H-isoquinolin-2-yl)-2-oxoethyl]-2,4-dimethyl-5-phenylpyrrole-3-carboxylate] | 5 µM | > 30 µM | – | – | –
17 | Cc1cc(C)cc(NC(=O)CSc2cn(CC(=O)N3CCCC3)c3ccccc23)c1 [KM-50, N-(3,5-dimethylphenyl)-2-[1-(2-oxo-2-pyrrolidin-1-ylethyl)indol-3-yl]sulfanylacetamide] | 5 µM | > 30 µM | – | – | –
18 | Cc1ccccc1-n1nc2c(c1NC(=O)c1cccc3ccccc13)C[S+]([O-])C2 (stereo not drawn) [SC-3, N-[2-(2-methylphenyl)-5-oxo-4,6-dihydrothieno[3,4-c]pyrazol-3-yl]naphthalene-1-carboxamide] | 0.6 µM | > 30 µM | 4.2% | – | –
19 | O=S(=O)(c1ccc(F)cc1)N1C=Cc2ccccc2C1c1c[nH]c2ccccc12 (stereo not drawn) [SC-4, 2-(4-fluorophenyl)sulfonyl-1-(1H-indol-3-yl)-1H-isoquinoline] | > 5 µM | > 30 µM | – | – | –
20 | O=C(Cc1cccc2ccccc12)Nc1c2c(nn1-c1ccccc1)CS(=O)(=O)C2 [SC-5, N-(5,5-dioxo-2-phenyl-4,6-dihydrothieno[3,4-c]pyrazol-3-yl)-2-naphthalen-1-ylacetamide] | 2.2 µM | 30 µM | 43% | – | –
21 | O=C(Nc1c2c(nn1-c1ccccc1)CS(=O)(=O)C2)c1cccc2ccccc12 [SC-6, N-(5,5-dioxo-2-phenyl-4,6-dihydrothieno[3,4-c]pyrazol-3-yl)naphthalene-1-carboxamide] | > 5 µM | > 30 µM | – | – | –
22 | O=C(Cc1cccc2ccccc12)Nc1c2c(nn1-c1ccccc1)C[S+]([O-])C2 (stereo not drawn) [SC-7, 2-naphthalen-1-yl-N-(5-oxo-2-phenyl-4,6-dihydrothieno[3,4-c]pyrazol-3-yl)acetamide] | > 5 µM | > 30 µM | – | – | –
23 | COc1ccc(C2SCCN2S(=O)(=O)c2ccc3c(c2)Cc2ccccc2-3)cc1 (stereo not drawn) [SC-8, 3-(9H-fluoren-2-ylsulfonyl)-2-(4-methoxyphenyl)-1,3-thiazolidine] | > 5 µM | > 30 µM | – | – | –
24 | O=C(Nc1c2c(nn1-c1ccccc1)C[S+]([O-])C2)c1cccc2ccccc12 (stereo not drawn) [SC-9, N-(5-oxo-2-phenyl-4,6-dihydrothieno[3,4-c]pyrazol-3-yl)naphthalene-1-carboxamide] | > 5 µM | > 30 µM | – | – | –
25 | Cn1c(-c2ccccc2)c(C(=O)Cn2cnc3ccsc3c2=O)c2ccccc21 [SC-10, 3-[2-(1-methyl-2-phenylindol-3-yl)-2-oxoethyl]thieno[3,2-d]pyrimidin-4-one] | > 5 µM | > 30 µM | – | – | –
26 | O=C1Cc2cc(C(=O)CSc3nc4ccccc4n3-c3ccccc3)ccc2N1 [SC-12, 5-[2-(1-phenylbenzimidazol-2-yl)sulfanylacetyl]-1,3-dihydroindol-2-one] | 0.9 µM | > 30 µM | – | – | –
27 | O=C(Nc1c2c(nn1-c1ccc(F)cc1)C[S+]([O-])C2)c1cccc2ccccc12 (stereo not drawn) [SC-14, N-[2-(4-fluorophenyl)-5-oxo-4,6-dihydrothieno[3,4-c]pyrazol-3-yl]naphthalene-1-carboxamide] | > 5 µM | > 30 µM | 9.6% | – | –
28 | Cc1ccc(-n2nc3c(c2NC(=O)c2cccc4ccccc24)C[S+]([O-])C3)cc1 (stereo not drawn) [SC-16, N-[2-(4-methylphenyl)-5-oxo-4,6-dihydrothieno[3,4-c]pyrazol-3-yl]naphthalene-1-carboxamide] | > 5 µM | > 30 µM | 13.6% | – | –
